The record followed here is publication PMC12133982, “Predominant T-cell epitopes of SARS-CoV-2 restricted by multiple prevalent HLA-B and HLA-C allotypes in Northeast Asia” (Frontiers in Immunology, 2025).

Usually inhibition stands for how much of the control response was suppressed.

The target of one assay is HLA-B1302 (Homo sapiens, UniProt P01889, A65T/A93T/A95T/D138N/D201E/D98Y/E176V/E204Q/E69M/E70A/G107R/K202T/L105A/L119W/N104T/N87E/Q94N/R106L/R155S/R169L/R180L/S101N/S121T/S35A/S48T/V127L/V36M/Y140L/Y91S). Kind of assay: Competitive peptide binding assay, CIR-B1302. Particulars: HMy2.CIR-B1302 cells, reference Cy5-MMWYWGPSL, class from inhibition at 5 and 15 μM, flow cytometry MFI; read-out: Binding affinity with HLA-B1302. As to the method: (§1) Then, competitive peptide binding assays were performed.
(In general: In flow cytometry, cells or beads pass a laser one at a time.)

The target in a further assay is HLA-B4403 (Homo sapiens, UniProt P01889, A223V/A65T/A93T/A95T/D201E/D98Y/E176V/E187L/E204Q/E69K/G107R/H137Y/K202T/L105A/L119I/N104T/N87E/Q56L/Q94N/R106L/R155S/R180L/S101N/S121R/S35A/S48T/T118I/V36M/W191S/Y140D/Y91S). Kind of assay: Competitive peptide binding assay, CIR-B4403. Particulars: HMy2.CIR-B4403 cells, reference Cy5-CYMEAVAL, class from inhibition at 5 and 15 μM, flow cytometry MFI; read-out: Binding affinity with HLA-B4403. As to the method: as §1

In the next assay the target is HLA-B1501 (Homo sapiens, UniProt P01889, A329T/A93T/A95T/C349S/D201E/D98Y/E187L/E204Q/E69M/E70A/K202T/N87E/Q94N/R155S/R180W/S121R/S35A/S48A/V306I/V36M/Y140S/Y91S). Description: Competitive peptide binding assay, CIR-B1501. Conditions: HMy2.CIR-B1501 cells, reference Cy5-[…], class from inhibition at 5 and 15 μM, flow cytometry MFI; read-out: Binding affinity with HLA-B1501. The protocol: as §1

The target in a further assay is HLA-B1301 (Homo sapiens, UniProt P01889, A65T/A93T/A95T/D138N/D201E/D98Y/E176V/E204Q/E69M/E70A/G107R/K202T/L105A/L119I/N104T/N87E/Q94N/R106L/R155S/R169L/R180L/S101N/S121R/S35A/S48T/T118I/V127L/V36M/Y140L/Y91S). Kind of assay: Competitive peptide binding assay, CIR-B1301. Particulars: HMy2.CIR-B1301 cells, reference Cy5-[…], class from inhibition at 5 and 15 μM, flow cytometry MFI; read-out: Binding affinity with HLA-B1301. The protocol:
as §1

The target of a further assay is HLA-B3501 (Homo sapiens, UniProt P01889, A329T/A93T/A95T/C349S/D201E/D98Y/E176V/E187L/E204Q/E69T/I218V/K202T/L119I/Q94N/R155S/R180L/S121R/S35A/S48A/T118I/V127L/V306I/V36M/Y140S/Y91F). Kind of assay: Competitive peptide binding assay, CIR-B3501. Particulars: HMy2.CIR-B3501 cells, reference Cy5-[…], class from inhibition at 5 and 15 μM, flow cytometry MFI; read-out: Binding affinity with HLA-B3501. As to the method:
as §1

A further assay has as its target HLA-B4601 (Homo sapiens, UniProt P01889, A329T/A93R/C349S/D201E/E100V/E187L/E204Q/E69M/E70A/I90K/K202T/N87E/R155S/R180W/S121R/S35A/S48A/V306I/V36M/Y140S). Description: Competitive peptide binding assay, CIR-B4601. Particulars: for IC50: HMy2.CIR-B4601 cells, reference Cy5-[…], class from inhibition at 5 and 15 μM, flow cytometry MFI, read-out: Binding affinity with HLA-B4601. The protocol:
as §1

In another assay the target is HLA-B1502 (Homo sapiens, UniProt P01889, A329T/A93T/A95T/C349S/D201E/D98Y/E187L/E204Q/E69M/E70A/H137Y/K202T/L119I/Q94N/R155S/R180L/S121R/S35A/S48A/T118I/V306I/V36M/Y140S/Y91S). Description: Competitive peptide binding assay, CIR-B1502. Particulars: HMy2.CIR-B1502 cells, reference Cy5-[…], class from inhibition at 5 and 15 μM, flow cytometry MFI; read-out: Binding affinity with HLA-B1502. The protocol:
as §1

A further assay deals with HLA-B5801 (Homo sapiens, UniProt P01889, A329T/C349S/D201E/D98Y/E176V/E187L/E204Q/E69T/G107R/I218V/I90N/K202T/L105A/L119I/N104I/N87E/Q89R/Q94S/R106L/R155S/R180L/R86G/S101N/S121R/S35A/S48A/T118I/V127L/V306I/V36M/Y140S/Y91M). Description: Competitive peptide binding assay, CIR-B5801. Particulars: HMy2.CIR-B5801 cells, reference Cy5-[…], class from inhibition at 5 and 15 μM, flow cytometry MFI; read-out: Binding affinity with HLA-B5801. The protocol: as §1

Another assay concerns the target HLA-B4001 (Homo sapiens, UniProt P01889, A65T/A93T/A95T/D138N/D98Y/E176V/E69K/N87E/Q56L/Q94N/R180L/S121R/S35A/S48T/T167S/V36M/W171L/Y33H/Y91S). Kind of assay: Competitive peptide binding assay, CIR-B4001. Conditions: HMy2.CIR-B4001 cells, reference Cy5-[…], class from inhibition at 5 and 15 μM, flow cytometry MFI; read-out: Binding affinity with HLA-B4001. The protocol: as §1

Another assay deals with T1, HLA-B0702 (Homo sapiens, UniProt P01889).
T1 construct: expressed in transfected cells; host or cells: HMy2.CIR
Description: Competitive peptide binding assay, CIR-B0702. Conditions: HMy2.CIR-B0702 cells, reference Cy5-[…], class from inhibition at 5 and 15 μM, flow cytometry MFI. The protocol: as §1

“And” between values parts separate entries of the source, which are not always exact repeats. Identical values can stand only once. Peptide text beside a SMILES is read from it.

In the case of `CC(C)C[C@H](NC(=O)[C@H](CC(N)=O)NC(=O)[C@H](CCCCN)NC(=O)[C@@H](NC(=O)[C@H](CCCNC(=N)N)NC(=O)[C@H](CO)NC(=O)[C@H](Cc1ccc(O)cc1)NC(=O)[C@@H](NC(=O)[C@@H](N)Cc1ccc(O)cc1)C(C)C)C(C)C)C(=O)O` [Epitope Y3] (H-YVYSRVKNL-OH; N-terminus and C-terminus assumed), the IC50 on HLA-B1302 was more than 15 µM; at HLA-B4403, less than 5 µM; at HLA-B1501 it was 5 to 15 µM; at HLA-B1301, more than 15 µM; at HLA-B3501 it was more than 15 µM; at HLA-B4601 it was more than 15 µM.

Consider `CC[C@H](C)[C@H](NC(=O)[C@H](Cc1ccc(O)cc1)NC(=O)[C@H](CCC(N)=O)NC(=O)[C@H](CCC(=O)O)NC(=O)[C@@H](N)Cc1ccc(O)cc1)C(=O)N[C@@H](CCCCN)C(=O)N[C@@H](Cc1c[nH]c2ccccc12)C(=O)N1CCC[C@H]1C(=O)N[C@@H](Cc1c[nH]c2ccccc12)C(=O)O` [Epitope Y230] (H-YEQYIKWPW-OH; N-terminus and C-terminus assumed), for which the IC50 was less than 5 µM at HLA-B4403; more than 15 µM at HLA-B1501; more than 15 µM on HLA-B1502; 5 to 15 µM at HLA-B5801; more than 15 µM on HLA-B3501; more than 15 µM on HLA-B4601. The IC50 at HLA-B4001 is more than 15 µM.

As for `CC[C@H](C)[C@H](NC(=O)[C@H](C)NC(=O)[C@H](C)NC(=O)[C@H](CC(N)=O)NC(=O)[C@H](CC(N)=O)NC(=O)[C@H](C)NC(=O)[C@@H]1CCCN1C(=O)[C@@H](N)CC(N)=O)C(=O)N[C@H](C(=O)O)C(C)C` [Epitope Y18] (H-NPANNAAIV-OH; N-terminus and C-terminus assumed), the IC50 on HLA-B4403 was more than 15 µM; on HLA-B1501, 5 to 15 µM; on HLA-B4601, more than 15 µM; at HLA-B4001 it was more than 15 µM. Further, at HLA-B4601 (read-out: Inhibition % of Cy5-reference peptide binding, CIR-B4601, 5μM peptide), the inhibition at 5 µM is 12.5%. For the same compound, on HLA-B4601 (read-out: Inhibition % of Cy5-reference peptide binding, CIR-B4601, 15μM peptide), the inhibition at 15 µM was 42.5%.

Consider `CC[C@H](C)[C@H](NC(=O)[C@@H](NC(=O)[C@H](CC(C)C)NC(=O)[C@H](CCC(=O)O)NC(=O)[C@H](CO)NC(=O)[C@H](CCC(=O)O)NC(=O)[C@@H](N)CC(C)C)C(C)C)C(=O)NCC(=O)N[C@@H](C)C(=O)N[C@H](C(=O)O)C(C)C` [Epitope Y211] (H-LESELVIGAV-OH; N-terminus and C-terminus assumed), for which the IC50 is more than 15 µM on HLA-B1302; more than 15 µM on HLA-B0702; 5 to 15 µM on HLA-B1501; more than 15 µM on HLA-B1502; more than 15 µM on HLA-B1301; more than 15 µM on HLA-B5801. In addition, the figures for the IC50 at HLA-B3501, on HLA-B4601 and on HLA-B4001 were more than 15 µM, more than 15 µM and 5 to 15 µM, respectively.

With `CC[C@H](C)[C@H](NC(=O)[C@H](CC(C)C)NC(=O)[C@H](CS)NC(=O)CNC(=O)[C@H](C)NC(=O)[C@H](CCCNC(=N)N)NC(=O)[C@@H](NC(=O)[C@H](CCC(N)=O)NC(=O)[C@@H](N)Cc1ccccc1)[C@@H](C)O)C(=O)O` [Epitope Y89] (H-FQTRAGCLI-OH; N-terminus and C-terminus assumed), the IC50 was < 5 µM and > 15 µM on HLA-B1302; more than 15 µM on HLA-B4403; more than 15 µM at HLA-B1501; more than 15 µM on HLA-B5801; more than 15 µM at HLA-B3501; more than 15 µM on HLA-B4601. Also, on HLA-B4001, the IC50 lay in the range of 5 to 15 µM.

With `CC[C@H](C)[C@H](NC(=O)[C@H](CCCNC(=N)N)NC(=O)[C@H](CC(C)C)NC(=O)[C@H](CCSC)NC(=O)[C@H](CC(N)=O)NC(=O)[C@@H]1CCCN1C(=O)[C@H](CCSC)NC(=O)[C@H](C)NC(=O)[C@@H](N)CCCNC(=N)N)C(=O)O` [Epitope Y77] (H-RAMPNMLRI-OH; N-terminus and C-terminus assumed), the IC50 was less than 5 µM on HLA-B1302; more than 15 µM at HLA-B4403; more than 15 µM on HLA-B1301; 5 to 15 µM on HLA-B5801; more than 15 µM at HLA-B3501; 5 to 15 µM on HLA-B4601.

In the case of `CC(C)[C@H](NC(=O)[C@@H](NC(=O)[C@@H](N)Cc1ccccc1)C(C)C)C(=O)N[C@@H](CO)C(=O)N[C@H](C(=O)NCC(=O)N[C@@H](Cc1ccc(O)cc1)C(=O)N[C@@H](Cc1c[nH]cn1)C(=O)N[C@@H](Cc1ccccc1)C(=O)O)[C@@H](C)O` [Epitope Y167] (H-FVVSTGYHF-OH; N-terminus and C-terminus assumed), the IC50 was more than 15 µM at HLA-B0702; more than 15 µM on HLA-B4403; more than 15 µM at HLA-B1501; 5 to 15 µM on HLA-B1502; more than 15 µM on HLA-B1301; more than 15 µM on HLA-B5801. Further, the IC50 at HLA-B3501 and at HLA-B4601 was 5 to 15 µM in each case.

With `CC[C@H](C)[C@H](NC(=O)[C@H](CC(C)C)NC(=O)[C@H](CCC(N)=O)NC(=O)[C@H](CCC(N)=O)NC(=O)[C@@H](NC(=O)[C@@H](NC(=O)[C@H](Cc1ccc(O)cc1)NC(=O)[C@@H](NC(=O)[C@H](CCC(N)=O)NC(=O)[C@@H](N)CC(C)C)[C@@H](C)O)C(C)C)[C@@H](C)O)C(=O)O` [Epitope Y118] (H-LQTYVTQQLI-OH; N-terminus and C-terminus assumed), the IC50 at HLA-B1302 was < 5 µM and 5 to 15 µM; at HLA-B4403 it was 5 to 15 µM; at HLA-B1502, more than 15 µM; on HLA-B5801, more than 15 µM; on HLA-B3501, more than 15 µM; on HLA-B4601, more than 15 µM.

As to `CC[C@H](C)[C@H](N)C(=O)N[C@@H](C)C(=O)N[C@@H](CCSC)C(=O)N[C@@H](C)C(=O)N[C@@H](CS)C(=O)N[C@@H](CC(C)C)C(=O)N[C@H](C(=O)NCC(=O)N[C@@H](CC(C)C)C(=O)O)C(C)C` [Epitope Y253] (H-IAMACLVGL-OH; N-terminus and C-terminus assumed), the IC50 on HLA-B1302 is 5 to 15 µM; on HLA-B4403, 5 to 15 µM; at HLA-B1501, more than 15 µM; at HLA-B1502, more than 15 µM; at HLA-B1301, 5 to 15 µM; on HLA-B5801 it was more than 15 µM. The IC50 on HLA-B3501 is more than 15 µM; at HLA-B4601, less than 5 µM.
